Read-outs that look alike come from different tables or passages of the source.
Biological target: GCN2 (Homo sapiens (Human), UniProt Q9P2K8)
Test: TR-FRET biochemical assay for inhibition of GCN2
[1] = GCN2 2 nM, 100 nM GFP-eIF2a, 150 μM ATP, TR-FRET

Chain of GCN2 (Q9P2K8 whole entry): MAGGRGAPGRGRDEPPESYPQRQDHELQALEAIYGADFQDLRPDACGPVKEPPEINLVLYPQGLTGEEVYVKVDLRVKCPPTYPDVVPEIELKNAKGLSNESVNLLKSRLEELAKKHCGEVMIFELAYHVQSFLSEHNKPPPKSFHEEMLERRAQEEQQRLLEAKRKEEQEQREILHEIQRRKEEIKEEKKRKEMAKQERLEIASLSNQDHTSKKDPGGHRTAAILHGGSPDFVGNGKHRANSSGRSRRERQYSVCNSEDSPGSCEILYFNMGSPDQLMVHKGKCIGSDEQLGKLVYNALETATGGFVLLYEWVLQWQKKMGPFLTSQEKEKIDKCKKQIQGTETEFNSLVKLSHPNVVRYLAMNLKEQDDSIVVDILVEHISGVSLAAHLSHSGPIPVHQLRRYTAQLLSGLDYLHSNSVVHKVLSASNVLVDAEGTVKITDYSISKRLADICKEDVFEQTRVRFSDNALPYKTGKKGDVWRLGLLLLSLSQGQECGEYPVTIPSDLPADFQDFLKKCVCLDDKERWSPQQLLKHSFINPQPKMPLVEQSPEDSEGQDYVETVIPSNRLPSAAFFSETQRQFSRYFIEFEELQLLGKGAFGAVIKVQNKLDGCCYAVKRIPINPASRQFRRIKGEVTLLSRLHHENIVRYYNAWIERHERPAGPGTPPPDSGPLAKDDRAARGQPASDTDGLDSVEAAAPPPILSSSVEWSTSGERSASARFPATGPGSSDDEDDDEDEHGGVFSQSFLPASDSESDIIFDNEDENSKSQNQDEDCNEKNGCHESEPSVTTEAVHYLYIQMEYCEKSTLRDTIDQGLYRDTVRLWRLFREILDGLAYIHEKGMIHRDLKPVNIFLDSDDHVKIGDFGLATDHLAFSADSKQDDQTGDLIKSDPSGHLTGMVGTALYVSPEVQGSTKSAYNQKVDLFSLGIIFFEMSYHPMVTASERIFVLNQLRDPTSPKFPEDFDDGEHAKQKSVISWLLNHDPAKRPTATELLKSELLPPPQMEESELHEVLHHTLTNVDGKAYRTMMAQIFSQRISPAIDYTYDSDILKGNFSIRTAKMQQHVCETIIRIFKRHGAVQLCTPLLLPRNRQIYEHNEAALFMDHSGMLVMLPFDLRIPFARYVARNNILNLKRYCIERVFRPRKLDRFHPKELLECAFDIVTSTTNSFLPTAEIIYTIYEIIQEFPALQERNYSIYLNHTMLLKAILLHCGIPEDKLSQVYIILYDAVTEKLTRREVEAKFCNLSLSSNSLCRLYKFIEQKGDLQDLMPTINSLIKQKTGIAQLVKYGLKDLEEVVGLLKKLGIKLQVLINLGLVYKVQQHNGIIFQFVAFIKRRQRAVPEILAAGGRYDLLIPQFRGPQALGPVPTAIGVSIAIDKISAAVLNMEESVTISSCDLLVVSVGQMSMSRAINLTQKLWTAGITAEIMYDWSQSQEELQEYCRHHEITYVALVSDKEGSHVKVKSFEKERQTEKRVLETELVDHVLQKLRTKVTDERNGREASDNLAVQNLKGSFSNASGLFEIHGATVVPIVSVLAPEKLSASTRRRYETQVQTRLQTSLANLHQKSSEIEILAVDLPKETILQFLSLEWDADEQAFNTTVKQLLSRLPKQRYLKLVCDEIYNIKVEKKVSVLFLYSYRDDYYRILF

CNC(=O)c1ncn2c1CN(C)[C@@H](c1c(F)ccc(NS(=O)(=O)c3cc(Cl)cnc3OC)c1F)C2 (single isomer, unassigned) [Compound 33-2] showed an IC50 of 500 to 1000 nM.

With Cc1nnc(-c2ncn3cc(-c4c(F)ccc(NS(=O)(=O)c5cc(F)cnc5C)c4F)ncc23)[nH]1 [Compound 129, N-[2,4-difluoro-3-[1-(5-methyl-4H-1,2,4-triazol-3-yl)imidazo[1,5-a]pyrazin-6-yl]phenyl]-5-fluoro-2-methylpyridine-3-sulfonamide] the IC50 [1] was under 50 nM.

Work on COc1ncc(Cl)cc1S(=O)(=O)Nc1ccc(F)c(-c2cn3cnc(C(=O)N[C@H]4CCN(C)C4)c3cn2)c1F [Compound 173-2, (S)-6-(3-((5-chloro-2-methoxypyridine)-3-sulfonamido)-2,6-difluorophenyl)-N-(1-methylpyrrolidin-3-yl)imidazo[1,5-a]pyrazine-1-carboxamide] yielded an IC50 [1] of under 50 nM.

With COc1ncc(C#N)cc1S(=O)(=O)Nc1ccc(F)c(-c2ccc3c(-c4ncc[nH]4)ncn3c2)c1F [Compound 20, 5-cyano-N-[2,4-difluoro-3-[1-(1H-imidazol-2-yl)imidazo[1,5-a]pyridin-6-yl]phenyl]-2-methoxypyridine-3-sulfonamide] the IC50 [1] was under 50 nM.

Compound Cc1ncc(Cl)cc1S(=O)(=O)Nc1ccc(F)c([C@H]2CCc3c(-c4ncc[nH]4)ncn3C2)c1F (single isomer, unassigned) [Compound 84-1] has an IC50 [1] of under 50 nM.

COc1ncc(Cl)cc1S(=O)(=O)Nc1ccc(F)c(-c2ccc3c(-c4nc(Cl)c[nH]4)ncn3c2F)c1F [Compound 116, 5-chloro-N-[3-[1-(4-chloro-1H-imidazol-2-yl)-5-fluoroimidazo[1,5-a]pyridin-6-yl]-2,4-difluorophenyl]-2-methoxypyridine-3-sulfonamide] gave an IC50 [1] of under 50 nM.

Work on CNC(=O)c1ncn2c1CC[C@@H](c1c(F)ccc(NS(=O)(=O)c3cc(F)cnc3OC)c1Cl)C2 [Compound 152-2, (6S)-6-[2-chloro-6-fluoro-3-(5-fluoro-2-methoxypyridine-3-sulfonamido)phenyl]-N-methyl-5H,6H,7H,8H-imidazo[1,5-a]pyridine-1-carboxamide] yielded an IC50 of 50 to 500 nM.

COc1ncc(Cl)cc1S(=O)(=O)Nc1ccc(F)c(-c2ccc3c(-c4nc(Cl)c[nH]4)ncn3c2)c1F [Compound 52, 5-chloro-N-[3-[1-(4-chloro-1H-imidazol-2-yl)imidazo[1,5-a]pyridin-6-yl]-2,4-difluorophenyl]-2-methoxypyridine-3-sulfonamide] gave an IC50 [1] of under 50 nM.

Work on CNC(=O)c1ncn2cc(-c3c(F)ccc(NS(=O)(=O)c4cc(Cl)cnc4OC4CC4)c3F)ncc12 [Compound 169, 6-[3-(5-chloro-2-cyclopropoxypyridine-3-sulfonamido)-2,6-difluorophenyl]-N-methylimidazo[1,5-a]pyrazine-1-carboxamide] yielded an IC50 of 50 to 500 nM.

With COc1ncc(F)cc1S(=O)(=O)Nc1ccc(F)c(-c2ccc3c(-c4ccno4)ncn3c2)c1F [Compound 118, N-[2,4-difluoro-3-[1-(1,2-oxazol-5-yl)imidazo[1,5-a]pyridin-6-yl]phenyl]-5-fluoro-2-methoxypyridine-3-sulfonamide] the IC50 [1] was under 50 nM.

In the case of COc1ncc(C#N)cc1S(=O)(=O)Nc1ccc(F)c(-c2ccc3c(-c4nnc(C)[nH]4)ncn3c2)c1F [Compound 59, 5-cyano-N-[2,4-difluoro-3-[1-(5-methyl-4H-1,2,4-triazol-3-yl)imidazo[1,5-a]pyridin-6-yl]phenyl]-2-methoxypyridine-3-sulfonamide], the IC50 [1] is reported as under 50 nM.

COc1ncc(F)cc1S(=O)(=O)Nc1ccc(F)c([C@@H]2CCc3c(-c4nnc(C)[nH]4)ncn3C2)c1F [Compound 131-1, N-[2,4-difluoro-3-[(6S)-1-(5-methyl-4H-1,2,4-triazol-3-yl)-5H,6H,7H,8H-imidazo[1,5-a]pyridin-6-yl]phenyl]-5-fluoro-2-methoxypyridine-3-sulfonamide] was tested, and the IC50 [1] was under 50 nM.

CNC(=O)c1ncc2cc(-c3c(F)ccc(NS(=O)(=O)c4cc(Cl)cnc4OC)c3F)ccn12 [Compound 30, 7-[3-(5-chloro-2-methoxypyridine-3-sulfonamido)-2,6-difluorophenyl]-N-methylimidazo[1,5-a]pyridine-3-carboxamide] showed an IC50 [1] of under 50 nM.
